Legend:
[1] = tested on: IL6R-ss+10aa/Gaussia Luciferase; experiment: Dox-induced IL-6R-ss-Gluc Assay; type: cell-based; conditions: Table 1; for IC50: Flp-In 293 T-REx cells, 24 hours with doxycycline, read-out: 24hr Dox Inducible IL6R(ss + 10)Gluc 293FRT/TO: Mean IC50; for 24hr Dox Inducible IL6R(ss + 10)Gluc 293FRT/TO: IL6R/PD1: ratio of IC50s IL6R/PD1
Text: Flp-In 293 T-REx™ cells were transfected with pcDNATM5/FRT/TO plasmid inserted with cDNA encoding Gaussia Luciferase fused to the 3′ end of cDNA encoding IL6R signal sequence plus 10 amino acids (N-[…]-C). Transfected cells were selected for resistance to the selectable markers Hygromycin and Blasticidin to create a stable cell line that contained the IL6R-ss+10aa/Gaussia Luciferase cDNA insert whose expression was regulated under the T-REx™ system. The day before assay, cells were trypsinized and plated in 384-well tissue culture plates. The next day, compound dilutions in DMSO/media containing doxycycline were added to the wells and incubated at 37° C., 5% CO2.
(§1) For chemical structures that include one or more stereoisomers, but are illustrated without indicating stereochemistry, the assay data refers to a mixture of stereoisomers.

CD47(ss + 10)Gluc = experiment: Dox-Induced CD47-ss-Gluc Assay; type: cell-based; conditions: Flp-In 293 T-REx cells, 24 hours with doxycycline; Table 1; read-out: 24 hr Dox Inducible CD47(ss + 10)Gluc 293FRT/TO: Mean IC50
[2] = Liver Microsome Stability Assay, mouse; type: in vitro ADME; conditions: mouse liver microsomes 1.0 mg/mL, 1.0 uM compound, 37° C., 1 mM NADPH
Procedure: (§2) Stability of a compound was assessed in the presence of liver microsomes from various sources—mouse, rat, monkey and human liver microsomes. 1.0 uM compound, 0.4% DMSO in 0.1 M Potassium Phosphate with 1.0 mg/mL liver microsomes, were incubated at 37° C. with or without 1 mM NADPH. The samples were quenched at 0, and 30 minutes.

[3] = Liver Microsome Stability Assay, rat; type: in vitro ADME; conditions: rat liver microsomes 1.0 mg/mL, 1.0 uM compound, 37° C., 1 mM NADPH
Procedure: as §2

[4] = Liver Microsome Stability Assay, monkey; type: in vitro ADME; conditions: monkey liver microsomes 1.0 mg/mL, 1.0 uM compound, 37° C., 1 mM NADPH
Procedure: as §2

[5] = tested on: multiple myeloma cell line NCI-H929; experiment: H929 Cell Viability Assay; type: cell-based, human; conditions: NCI-H929 cells, 48 hours, Celltiter-Glo; for EC50: Homo sapiens, read-out: 48 hr H929 Viability Celltiter-Glo: Mean EC50
Procedure: The human multiple myeloma cell line NCI-H929 was cultured in Advanced RPMI 1640 media (Gibco®) supplemented with 6% fetal bovine serum, 2 mM Glutamine, and 1× Penicillin/Streptomycin. On the day of assay, cells were resuspended in RPMI 1640 media supplemented with 10% fetal bovine serum, 2 mM Glutamine, and 1× Penicillin/Streptomycin and plated in 384-well tissue culture plates and treated with compound dilutions in DMSO/media. Plates were incubated at 37° C., 5% CO2 for 48 hours. After 48 hours, Celltiter-Glo® (Promega) was added to each well and luciferase signal was quantified using Tecan Infinite M1000 Pro for cell viability determination.
as §1

[6] = Liver Microsome Stability Assay, human; type: in vitro ADME; conditions: human liver microsomes 1.0 mg/mL, 1.0 uM compound, 37° C., 1 mM NADPH
Procedure: as §2

[7] = tested on: multiple myeloma cell line U266B1; experiment: U266 Cell Viability Assay; type: cell-based; conditions: Homo sapiens, U-266; U266B1 cells, 48 hours, Celltiter-Glo; read-out: 48 hr U266 Viability Celltiter-Glo: Mean EC50
Procedure: The human multiple myeloma cell line U266B1 was cultured in RPMI 1640 media supplemented with 10% fetal bovine serum, 2 mM Glutamine, and 1× Penicillin/Streptomycin. Cells were plated in 384-well tissue culture plates and treated with compound dilutions in DMSO/media. Plates were incubated at 37° C., 5% CO2 for 48 hours. After 48 hours, Celltiter-Glo® (Promega) was added to each well and luciferase signal was quantified using Tecan Infinite M1000 Pro for cell viability determination.
as §1

[8] = tested on: IL-2-FL/Gaussia Luciferase; experiment: Dox Inducible IL2-FL-Gluc Assay; type: cell-based; conditions: Table 1; for IC50: Flp-In 293 T-REx cells, 24 hours with doxycycline, read-out: 24 hr Dox Inducible IL2FLGluc 293FRT/TO: Mean IC50; for 24 hr Dox Inducible IL2FLGluc 293FRT/TO: IL2/PD1: ratio of IC50s IL2/PD1
Text: Flp-In 293 T-REx™ cells were transfected with pcDNA™5/FRT/TO plasmid inserted with cDNA encoding Gaussia Luciferase fused to the 3′ end of cDNA encoding full length IL-2 (amino acids 1-153). Transfected cells were selected for resistance to the selectable markers Hygromycin and Blasticidin to create a stable cell line that contained the IL-2-FL/Gaussia Luciferase cDNA insert whose expression was regulated under the T-REx™ system. The day before assay, cells were trypsinized and plated in 384-well tissue culture plates. The next day, compound dilutions in DMSO/media containing doxycycline were added to the wells and incubated at 37° C., 5% CO2.
as §1

[9] = tested on: PD1-ss+10aa/Gaussia Luciferase; experiment: Dox-Induced PD1-ss-Gluc Assay; type: cell-based; conditions: Flp-In 293 T-REx cells, 24 hours with doxycycline; Table 1; read-out: 24 hr Dox Inducible PD1ssGluc 293FRT/TO: Mean IC50
Text: Flp-In 293 T-REx™ cells were transfected with pcDNA™5/FRT/TO plasmid inserted with cDNA encoding Gaussia Luciferase fused to the 3′ end of cDNA encoding PD1 signal sequence plus 10 amino acids (N-[…]-C) (SEQ ID NO: 1). Transfected cells were selected for resistance to the selectable markers Hygromycin and Blasticidin to create a stable cell line that contained the PD1-ss+10aa/Gaussia Luciferase cDNA insert whose expression was regulated under the T-REx™ system. The day before assay, cells were trypsinized and plated in 384-well tissue culture plates. The next day, compound dilutions in DMSO/media containing doxycycline were added to the wells and incubated at 37° C., 5% CO2.
as §1

SMILES | IC50 [1] | 24hr Dox Inducible IL6R(ss + 10)Gluc 293FRT/TO: IL6R/PD1 [1] | IC50 (CD47(ss + 10)Gluc) | Liver Microsome Stability (Multiple Species): Mouse - % Remaining after 30 min w/ NADPH (%) [2] | Liver Microsome Stability (Multiple Species): Rat - % Remaining after 30 min w/ NADPH (%) [3] | Liver Microsome Stability (Multiple Species): Monkey - % Remaining after 30 min w/ NADPH (%) [4] | 48 hr H929 Viability Celltiter-Glo: Mean EC50 (nM) [5] | Liver Microsome Stability (Multiple Species): Human - % Remaining after 30 min w/ NADPH (%) [6] | EC50 [7] | IC50 [8] | 24 hr Dox Inducible IL2FLGluc 293FRT/TO: IL2/PD1 [8] | IC50 [9] | EC50 [5]
O=C(Nc1nc(/C=C/c2ncn(C3CC3)c2Cl)cs1)c1cc(OC(F)F)cn1Cc1ccnc(F)c1 [Compound A15, (E)-N-(4-(2-(5-chloro-1-cyclopropyl-1H-imidazol-4-yl)vinyl)thiazol-2-yl)-4-(difluoromethoxy)-1-((2-fluoropyridin-4-yl)methyl)-1H-pyrrole-2-carboxamide] | 2.07 µM | 345 | 3.23 µM | 100% | 55% | 57% | I.A | 73% | > 25 µM | 2.94 µM | 490 | 0.006 µM | 
[2H]C([2H])(c1ccnc(F)c1)n1cc(OC(F)F)cc1C(=O)Nc1nc(/C=C/c2ncn(C3CC3)c2Cl)cs1 [Compound A16, (E)-N-(4-(2-(5-chloro-1-cyclopropyl-1H-imidazol-4-yl)vinyl)thiazol-2-yl)-4-(difluoromethoxy)-1-((2-fluoropyridin-4-yl)methyl-d2)-1H-pyrrole-2-carboxamide] | 2.15 µM | 339 | 2.8 µM | 81% | 56% | 58% |  | 83% | > 25 µM | 2.91 µM | 460 | 0.006 µM | > 25 µM
CCOc1cc(C(=O)Nc2nc(/C=C/c3ncn(C4CC4)c3Cl)cs2)n(Cc2ccnc(F)c2)c1 [Compound A17, (E)-N-(4-(2-(5-chloro-1-cyclopropyl-1H-imidazol-4-yl)vinyl)thiazol-2-yl)-4-ethoxy-1-((2-fluoropyridin-4-yl)methyl)-1H-pyrrole-2-carboxamide] | 2.1 µM | 240 | 2.74 µM | 72% | 2% | 17% | I.A | 26% | > 25 µM | 3.02 µM | 340 | 0.009 µM | 
O=C(Nc1nc(/C=C/c2ncn(C3CC3)c2Cl)cs1)c1cc(O)cn1Cc1ccnc(F)c1 [Compound A18, (E)-N-(4-(2-(5-chloro-1-cyclopropyl-1H-imidazol-4-yl)vinyl)thiazol-2-yl)-1-((2-fluoropyridin-4-yl)methyl)-4-hydroxy-1H-pyrrole-2-carboxamide] | 5.53 µM | 19 | 6.41 µM | 33% | 10% | 2% |  | 1% | > 25 µM | 7 µM | 24 | 0.295 µM | 24.7 µM
O=C(Nc1nc(/C=C/c2ncn(C3CC3)c2Cl)cs1)c1cc(OCF)cn1Cc1ccnc(F)c1 [Compound A19, (E)-N-(4-(2-(5-chloro-1-cyclopropyl-1H-imidazol-4-yl)vinyl)thiazol-2-yl)-4-(fluoromethoxy)-1-((2-fluoropyridin-4-yl)methyl)-1H-pyrrole-2-carboxamide] | 2.91 µM | 287 | 4.35 µM | 65% | 23% | 51% |  | 4% | > 25 µM | 3.66 µM | 360 | 0.01 µM | > 25 µM
COc1cc(C(=O)Nc2nc(/C=C/c3ncn(C4CC4)c3Cl)cs2)n(Cc2ccnc(F)c2F)c1 [Compound A20] | 3.76 µM | 123 | 5.01 µM | 74% | 41% | 28% |  | 52% | > 25 µM | > 25 µM | >810 | 0.031 µM | > 25 µM
COc1cc(C(=O)Nc2nc(/C=C/c3ncn(C(C)C)c3Cl)c(CO)s2)n(Cc2ccnc(F)c2F)c1 [Compound A21] | > 25 µM | >105 | 5.87 µM | 51% | 59% | <1% |  | 1% | > 25 µM | > 25 µM | >110 | 0.238 µM | > 25 µM

From patent US20250171434A1, “SEC61 INHIBITORS AND USE THEREOF” (KEZAR LIFE SCIENCES, INC., priority 2022, published 2025)
